According to patent US5948755A, “Cyclosporin compound, its preparation and the pharmaceutical compositions which contain it” (Rhone-Poulenc Rorer S.A., priority 1996, dated 1999):

How the values were obtained:
[1] = at concentrations displaying anti-retrovirus activity
[2] = tested on: retrovirus (HIV); conditions: read-out: average for the active concentrations (IC50); technique of Pauwells et al.; first of the two values printed
[3] = EP 484281 and Eur. J. Immunol., 17, 1359 (1987); cited from earlier work

| Molecule | cytotoxic or cytostatic effect [1] | IC50 [2] | immunosuppressing nature [3] |
| --- | --- | --- | --- |
| C/C=C/C[C@@H](C)[C@@H](O)[C@H]1C(=O)N[C@@H](CC)C(=O)N(C)[C@H](SC)C(=O)N(C)[C@@H](CC(C)(C)O)C(=O)N[C@@H](C(C)C)C(=O)N(C)[C@@H](CC(C)C)C(=O)N[C@@H](C)C(=O)N[C@H](C)C(=O)N(C)[C@@H](CC(C)C)C(=O)N(C)[C@@H](CC(C)C)C(=O)N(C)[C@@H](C(C)C)C(=O)N1C [formula (I), [(R)-Methylthio-Sar]^3-[4'-hydroxy-MeLeu]^4-cyclosporin A] | devoid of any cytotoxic or cytostatic effect | 70 nM | – |
| [4'-hydroxy-MeLeul]^4 -cyclosporin | – | – | are not immunosuppressants |
